Key:
11β-HSD1 = 11β-HSD1 (Homo sapiens, UniProt P28845); assay: 11β-HSD1 enzyme activity assay in cell lysates of transfected HEK-293 cells (HHH7 clone); assay type: biochemical; parameters: expressed in transfected cells; host or cells: HEK-293 (HHH7 clone), used as cell lysate; settings: 200 nM cortisone, 450 μM NADPH, 10 min
Protocol: Stably transfected human embryonic kidney (HEK-293) cells expressing 11β-HSD1 and hexose-6-phosphate dehydrogenase (the so called HHH7 clone) were cultivated for 48 h in Dulbecco's modified Eagle medium (DMEM) containing 4.5 g/L glucose, 10% fetal bovine serum, 100 U/mL penicillin, 0.1 mg/mL streptomycin, 1×MEM nonessential amino acids, and 10 mM HEPES buffer, pH 7.4. The cells were then washed with phosphate-buffered saline, and centrifuged for 4 min at 150×g. After removal of the supernatants, cell pellets were snap frozen on dry ice and stored at −80° C. until further use.
Cell lysates were incubated for 10 min at 37° C. in TS2 buffer (100 mM NaCl, 1 mM EGTA, 1 mM EDTA, 1 mM MgCl2, 250 mM sucrose, 20 mM Tris-HCl, pH 7.4) in a final volume of 22.2 μL containing either solvent (0.1% DMSO) or the inhibitor at the respective concentration as indicated in Table 4 (see below).
The steroids were separated by TLC, using methanol-chloroform (1:9) as solvent, followed by scintillation counting and calculation of substrate concentration. Data were collected from four independent measurements (standard deviation<10%).

[1] = test system: Human skin from abdominal plastic surgery; assay: Ex vivo: total dermal collagen after cortisone and cortisone/inhibitor treatment; assay type: cell-based; settings: day 6; for Dermal collagen: cortisone/inhibitor treatment, topical daily, untreated set to 100%
Protocol: Human skin from abdominal plastic surgery was used. The skin samples were cut in pieces of ˜8×3 mm (ø×thickness) and cultured up to day 6 in an air-liquid interface in a perforated ring of stainless steel in contact with a culture medium (modified Williams' E medium), while renewing the culture medium on day 3. Six skin specimens were used for each test sample. Each test sample (4 μl) was applied topically on top of each piece after cleaning of the surface with a cotton pad, which was subsequently covered with a 6 ø mm delivery membrane, this procedure was repeated daily. After 6 days skin sections were stained with Picrosirius Red histochemical staining, that dyes collagen fibers in purple-red. The papillary dermis was selected for the analysis. The different colors of the pictures were separated by using a deconvolution matrix. After deconvolution only pink-reddish images are used. Within these images the evaluation of dermal collagen was performed by estimating both color intensity and distribution with IMAGE J (NIH) analysis software. Two slides of each skin sample were processed by image acquisition and related analysis (i.e. 12 images for each treatment).

Sequence of 11β-HSD1 (P28845 whole entry): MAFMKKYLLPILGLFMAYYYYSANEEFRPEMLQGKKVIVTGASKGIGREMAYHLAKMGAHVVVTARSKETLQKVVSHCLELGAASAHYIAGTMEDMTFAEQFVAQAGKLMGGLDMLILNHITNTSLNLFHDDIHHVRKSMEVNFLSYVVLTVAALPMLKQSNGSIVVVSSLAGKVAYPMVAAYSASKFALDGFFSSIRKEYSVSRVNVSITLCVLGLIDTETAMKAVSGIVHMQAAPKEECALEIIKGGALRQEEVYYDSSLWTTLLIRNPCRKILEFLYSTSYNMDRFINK

Cc1ccc(-c2cccc(C(=O)N3CCC(C)CC3)c2)cc1F [II-d, (3′-fluoro-4′-methyl-[1,1′-biphenyl]-3-yl)(4-methylpiperidin-1-yl)methanone]
11β-HSD1 Remaining activity [% of control] (11β-HSD1; inhibitor 100 nM): 45 % of control

Cc1ccc(-c2cccc(C(=O)N3CCC(C)CC3)c2)cc1 [II-f, (4′-methyl-[1,1′-biphenyl]-3-yl)(4-methylpiperidin-1-yl)methanone]
11β-HSD1 Remaining activity [% of control] (11β-HSD1; inhibitor 1 μM): 2 % of control

Cc1ccc(-c2cccc(C(=O)N3CC(C)OC(C)C3)c2)cc1 (centres unmarked) [III-c, (2,6-dimethylmorpholino) (4′-methyl-[1,1′-biphenyl]-3-yl)methanone]
11β-HSD1 Remaining activity [% of control] (11β-HSD1; inhibitor 100 nM): 60 % of control | 11β-HSD1 Remaining activity [% of control] (11β-HSD1; inhibitor 1 μM): 3 % of control

Cc1ccc(-c2cccc(C(=O)N3CCCCCC3)c2)cn1 [IV-e, azepan-1-yl(3-(6-methylpyridin-3-yl)phenyl)methanone]
11β-HSD1 Remaining activity [% of control] (11β-HSD1; inhibitor 100 nM): 31 % of control | Dermal collagen ([1]; 10 μM in DMSO): 103% | Increase versus cortisone (#2) ([1]; 10 μM in DMSO): +34% | Dermal collagen ([1]; 100 μM in DMSO): 101% | Increase versus cortisone (#2) ([1]; 100 μM in DMSO): +31% | Dermal collagen ([1]; 200 μM in DMSO): 96% | Increase versus cortisone (#2) ([1]; 200 μM in DMSO): +25%

Reference: patent US10550097B2, “Selective 11-beta-hydroxysteroid dehydrogenase type 1 inhibitors” (DSM IP ASSETS B.V., priority 2015, dated 2020)
